Like-named read-outs stand apart in the source and are kept apart here.
What was measured:
TcrHGPRT = tested on: TcrHGPRT; set-up: method as in Canyuk et al. 43; Allen & Ullman 54; conditions: cited from earlier work
TbrHGPRT [1] = target: T1, TbrHGPRT (Trypanosoma brucei brucei, UniProt Q07010); test: Kinetic constants of naturally occurring substrates, continuous spectrophotometric assay; type: biochemical; set-up: made in house; host or cells: E. coli BL-21 (DE3), pET-22b
Description: One unit of activity is defined as the number of μmol of purine base converted to its mononucleotide product per minute.
The kinetic constants were calculated using GraphPad Prism 6.0.

Human HGPRT [2] = tested on: Human HGPRT; set-up: method as in de Jersey et al. 10; conditions: cited from earlier work
Human HGPRT [3] = target: Human HGPRT; set-up: method as in Cesnek et al. 19; Keough et al. 18; conditions: ref Cesnek et al. 19, Keough et al. 18; cited from earlier work
TbrHGPRT [4] = target: T1, TbrHGPRT; test: Inhibition studies, Ki determination
TbrHGPRT [5] = target: T1, TbrHGPRT; test: Standard enzyme activity assay with ammonium sulphate added; type: biochemical; set-up: made in house; host or cells: E. coli BL-21 (DE3), pET-22b; conditions: 2M ammonium sulphate added to the cuvette
[6] = ref Canyuk et al. 43, Allen & Ullman 54
[7] = ref Canyuk et al. 43, Allen & Ullman 54, read-out: Km
[8] = ref de Jersey et al. 10, read-out: Km

T1 sequence (Q07010 whole entry): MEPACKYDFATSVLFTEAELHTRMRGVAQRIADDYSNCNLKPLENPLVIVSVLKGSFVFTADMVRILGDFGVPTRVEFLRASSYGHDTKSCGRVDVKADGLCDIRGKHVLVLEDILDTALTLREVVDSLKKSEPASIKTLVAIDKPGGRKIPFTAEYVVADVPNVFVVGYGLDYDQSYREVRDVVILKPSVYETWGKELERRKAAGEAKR

For `O=c1[nH]c(=O)c2nc[nH]c2[nH]1` [Xanthine], the Km (TcrHGPRT; [6]) is given as “No activity reported”, the kcat (TcrHGPRT; [6]) is given as “No activity reported” and the kcat (TbrHGPRT [1]; 0.03 M phosphate buffer, […] MgCl2, 1 mM DTT, pH 7.4, 25 °C) is given as “Weak activity”. For the same compound, the Km (TbrHGPRT [1]; 0.03 M phosphate buffer, […] MgCl2, 1 mM DTT, pH 7.4, 25 °C, bases at 500 μM PRib-PP, PRib-PP at 40 μM guanine) was “Weak activity”, the “activity as a substrate” value (TbrHGPRT [1]; TbrHGPRT) was “only very weak activity” and the Km (Human HGPRT [2]; ref de Jersey et al. 10) was “Not a substrate”. For the same compound, the kcat (Human HGPRT [2]; ref de Jersey et al. 10) was “Not a substrate”.

For `Nc1nc2c(ncn2CCCCP(=O)(O)O)c(=O)[nH]1` [Compound 1], the Ki (Human HGPRT [3]) is listed as 21 µM and the Ki (TbrHGPRT [4]) is listed as 23.7 ± 0.3 µM.

In the case of `O=c1[nH]cnc2c1ncn2CCCP(=O)(O)O` [Compound 4], the Ki (Human HGPRT [3]) is listed as > 100 µM and the Ki (TbrHGPRT [4]) is listed as > 100 µM.

For `Nc1nc2c(ncn2CCCCCP(=O)(O)O)c(=O)[nH]1` [Compound 2], the Ki (Human HGPRT [3]) is listed as 0.5 µM and the Ki (TbrHGPRT [4]) is listed as 2.3 ± 0.1 µM.

For `N.N.O=S(=O)(O)O` [sulphate, ammonium sulphate], the inhibition (TbrHGPRT [5]) was 25%.

For `Nc1nc2nc[nH]c2c(=O)[nH]1` [Guanine], the Km (TcrHGPRT; [7]) is listed as 9.9 ± 0.29 µM, the kcat (TcrHGPRT; [6]) is listed as 41.2 ± 2.9 s⁻¹ and the Km (Human HGPRT [2]; [8]) is listed as 1.9 ± 0.4 µM. For the same compound, the kcat (Human HGPRT [2]; ref de Jersey et al. 10) was 8.2 ± 0.6 s⁻¹.

In the case of `Nc1nc2c(ncn2CCCCCCP(=O)(O)O)c(=O)[nH]1` [Compound 3], the Ki (Human HGPRT [3]) is given as 0.5 µM and the Ki (TbrHGPRT [4]) is given as 21.3 ± 0.4 µM.

For `Nc1nc2c(ncn2[C@@H]2O[C@H](COP(=O)(O)O)[C@@H](O)[C@H]2O)c(=O)[nH]1` [GMP, reference compound], the Ki (Human HGPRT [3]) is listed as 5.8 ± 0.2 µM, the Ki (TbrHGPRT [4]; 0.03 M phosphate, […] MgCl2, 1 mM DTT, pH 7.4, 25 °C, guanine 40 μM, PRib-PP varied 20 to 630 μM) is listed as 30.5 ± 1.5 µM and the “Ki for GMP, fold lower than for IMP” value (TbrHGPRT [4]; TbrHGPRT) is listed as 2.5 fold. For the same compound, the “Ki for TbrHGPRT, fold higher than for human HGPRT” value (TbrHGPRT [4]; TbrHGPRT vs human HGPRT) was 5 fold.

For `O=c1[nH]cnc2c1ncn2CCCCCP(=O)(O)O` [Compound 6], the Ki (Human HGPRT [3]) is given as > 100 µM and the Ki (TbrHGPRT [4]) is given as 15.8 ± 1.8 µM.

In the case of `O=c1[nH]cnc2c1ncn2CCCCP(=O)(O)O` [Compound 5], the Ki (Human HGPRT [3]) is given as > 100 µM and the Ki (TbrHGPRT [4]) is given as 58.6 ± 4 µM.

For `O=c1[nH]cnc2nc[nH]c12` [Hypoxanthine], the Km (TcrHGPRT; [7]) is given as 8.6 ± 1 µM, the kcat (TcrHGPRT; [6]) is given as 23 s⁻¹ and the “Km, fold higher than for guanine” value (TbrHGPRT [1]; TbrHGPRT) is given as 2 fold. For the same compound, the Km (Human HGPRT [2]; [8]) was 3.4 ± 1 µM and the kcat (Human HGPRT [2]; ref de Jersey et al. 10) was 5.2 ± 0.4 s⁻¹.

In the case of `O=P(O)(O)OC[C@H]1O[C@H](OP(=O)(O)OP(=O)(O)O)[C@H](O)[C@@H]1O` [PRib-PP], the Km (TcrHGPRT; [7]) is given as 32.4 ± 3.1 µM and the Km (Human HGPRT [2]; [8]) is given as 59.6 ± 6 µM.

For `O=c1[nH]cnc2c1ncn2CCCCCCP(=O)(O)O` [Compound 7], the Ki (Human HGPRT [3]) is listed as 77 µM and the Ki (TbrHGPRT [4]) is listed as > 100 µM.

From PMC5081515 (Scientific Reports, 2016)
